# Measurements as given in patent US3932619A, “Metabolite A-27106 and processes for its preparation and use” (Eli Lilly and Company, priority 1974, dated 1976).
# Where a name gives a salt, the structure may show the parent alone.
# Legend:
# mice = test: Acute intraperitoneal toxicity in groups of six mice; assay type: in vivo; conditions: for mice died: six mice
# Protocol: In tests when metabolite A-27106 sodium salt was administered intraperitoneally to groups of six mice each:
# In similar tests, when monensin sodium salt was administered intraperitoneally to groups of six mice each: […]
# coccidiosis = test: Other studies with A-27106 sodium salt alone and combined with monensin in the diet; assay type: in vivo, birds
# Protocol: Numerous other studies were carried out with metabolite A-27106 sodium salt, both alone and in combination with monensin.
# birds = test: Other studies: palatability and toxicity in birds; assay type: in vivo
# rumen fluid = test: Volatile fatty acid production in incubated diluted rumen fluid; parameters: species or system steer; conditions: 16 hours, 38°C.
# Excerpt: Rumen fluid is obtained from a steer with a surgically-installed fistula opening into the rumen. The steer is maintained on a high-grain ration, the composition of which follows:
# A sample of rumen fluid is strained through four layers of cheesecloth, and the filtrate is collected. The particulate matter retained by the cheesecloth is resuspended in enough physiological buffer to return it to the original volume of the rumen fluid, and this suspension is strained again. The buffer used has the following composition:
# The two filtrates are combined and allowed to stand until particulate matter separates to the top. The clear layer is separated, diluted with the same buffer (1:1) and then adjusted to pH 7.0.
# The diluted rumen fluid (10 ml.) is placed in a 25-ml. flask with 40 mg. of the above-described feed, an additional 5 mg. of soybean protein, and the compound to be tested. Four replicate flasks are used per treatment. Two sets of four control flasks each are also employed. A zero-time control and an incubated 16-hour control are used. All test flasks are incubated for 16 hours at 38°C. After incubation the pH is measured, and 25 percent metaphosphoric acid (2 ml.) is added to each flask. The samples are allowed to settle, and the supernatant is analyzed by gas chromatography for propionate, acetate, and butyrate compounds.
# Test-compound results are statistically compared with the control results.
# Eimeria tenella = test: Control of coccidiosis in chicks inoculated with Eimeria tenella, drug in feed; assay type: in vivo; conditions: for Avg. Wt. Gain/Bird: 7 days after inoculation; for Lesion Scores: number of birds at score 0 / Lesion Scores: number of birds at score 1 / Lesion Scores: number of birds at score 2 / Lesion Scores: number of birds at score 3 / Lesion Scores: number of birds at score 4: of 15 birds
# Protocol: A group of 75 one-week-old, healthy, incubator and battery-reared, cross-bred male chicks, of a heavy broiler type was used. The birds were divided into five groups of 15 birds having three replicates of five-bird subgroups each. Each subgroup was reared out of contact with the other subgroups. A first group was held as an untreated healthy control under favorable conditions. A second group was treated as the first group, but was inoculated with coccidiosis by oral administration of a dose containing 10^5 sporulated oocysts of Eimeria tenella. The third, fourth and fifth groups were treated as the second group except that, 24 hours before the said inoculation, their feed was modified by addition of metabolite A-27106 sodium salt in concentrations of 100, 150, and 200 parts per million (ppm), respectively.
# Seven days after inoculation, the birds were weighed, sacrificed and examined for evidence of coccidial lesions. Coccidial involvement was expressed on an arbitrary scale of zero to four. Lesion scores indicate the number of birds at each level. Zero indicates no evidence of coccidiosis. One designates the least coccidial involvement that can be seen. Two indicates moderate involvement with little or no hemorrhage and no severe tissue damage. Three indicates hemorrhage, swelling of the caeca, and extensive tissue involvement. Four indicates hemorrhage, a caecal core of clotted blood and debrided epithelial cells. Birds scoring […] or less usually recover if not further infected with coccidia.
# [1] = Solubility in organic solvents; assay type: physicochemical
# [2] = Electrometric titration (pKa); assay type: physicochemical; conditions: pH 8; electrometric titration in water, initial pH of 8
# Excerpt: The acid form of metabolite A-27106 is a white amorphous solid, having a molecular weight of about 832.
# [3] = 0.2 mcg./ml. diluted rumen fluid
# [4] = medicated birds with high lesion scores
compound,measurement,setting,value
"CC[C@@]1([C@@H]2O[C@@H]([C@H]3O[C@@](O)(CO)[C@H](C)C[C@@H]3C)C[C@@H]2C)CC[C@H]([C@]2(C)CC[C@]3(C[C@H](O)[C@@H](C)[C@@H]([C@@H](C)[C@@H](OC)[C@H](C)C(=O)O)O3)O2)O1 [monensin sodium salt, reference compound]",mice died,mice; 10 mg./kg.,one out of six died
same,mice died,mice; 20 mg./kg.,three out of six died
CCC1(C2OC(C3OC(O)(COC4OC(CO)C(O)C(O)C4O)C(C)CC3C)CC2C)CCC(C2(C)CCC3(CC(O)C(C)C(C(C)C(OC)C(C)C(=O)O)O3)O2)O1 (stereo not drawn) [metabolite A-27106 sodium salt],weight gains,coccidiosis; 0.04 percent versus 0.01 percent in diet,no greater weight gains at 0.04 percent than at 0.01%
same,toxicity,coccidiosis; higher rate (0.04 percent),no evidence of toxicity
same,caecal lesions,coccidiosis; higher rate (0.04 percent) versus 0.01 percent,fewer caecal lesions
same,mice died,mice; 50 mg./kg.,one out of six died
same,mice died,mice; 100 mg./kg.,three out of six died
same,toxicity compared with monensin,birds,less toxic than was monensin
same,"Butyrate, ratio of concentration in treated to control flasks",rumen fluid; [3],0.91
same,"Propionate, ratio of concentration in treated to control flasks",rumen fluid; [3],1.02
same,"Total VFA, ratio of concentration in treated to control flasks",rumen fluid; [3],1.07
same,"Butyrate, ratio of concentration in treated to control flasks",rumen fluid; 1 mcg./ml. diluted rumen fluid,0.96
same,"Propionate, ratio of concentration in treated to control flasks",rumen fluid; 1 mcg./ml. diluted rumen fluid,1.42
same,"Total VFA, ratio of concentration in treated to control flasks",rumen fluid; 1 mcg./ml. diluted rumen fluid,0.98
same,"Butyrate, ratio of concentration in treated to control flasks",rumen fluid; 5 mcg./ml. diluted rumen fluid,0.73
same,"Propionate, ratio of concentration in treated to control flasks",rumen fluid; 5 mcg./ml. diluted rumen fluid,2.15
same,"Total VFA, ratio of concentration in treated to control flasks",rumen fluid; 5 mcg./ml. diluted rumen fluid,1.03
same,Avg. Wt. Gain/Bird,Eimeria tenella; 100 ppm in the diet,157 Grams
same,Lesion Scores: number of birds at score 0,Eimeria tenella; 100 ppm in the diet,4
same,Lesion Scores: number of birds at score 1,Eimeria tenella; 100 ppm in the diet,1
same,Lesion Scores: number of birds at score 2,Eimeria tenella; 100 ppm in the diet,0
same,Lesion Scores: number of birds at score 3,Eimeria tenella; 100 ppm in the diet,3
same,Lesion Scores: number of birds at score 4,Eimeria tenella; 100 ppm in the diet,7
same,Avg. Wt. Gain/Bird,Eimeria tenella; 150 ppm in the diet,150 Grams
same,Lesion Scores: number of birds at score 0,Eimeria tenella; 150 ppm in the diet,3
same,Lesion Scores: number of birds at score 1,Eimeria tenella; 150 ppm in the diet,3
same,Lesion Scores: number of birds at score 2,Eimeria tenella; 150 ppm in the diet,1
same,Lesion Scores: number of birds at score 3,Eimeria tenella; 150 ppm in the diet,1
same,Lesion Scores: number of birds at score 4,Eimeria tenella; 150 ppm in the diet,7
same,Avg. Wt. Gain/Bird,Eimeria tenella; 200 ppm in the diet,166 Grams
same,Lesion Scores: number of birds at score 0,Eimeria tenella; 200 ppm in the diet,5
same,Lesion Scores: number of birds at score 1,Eimeria tenella; 200 ppm in the diet,0
same,Lesion Scores: number of birds at score 2,Eimeria tenella; 200 ppm in the diet,0
same,Lesion Scores: number of birds at score 3,Eimeria tenella; 200 ppm in the diet,0
same,Lesion Scores: number of birds at score 4,Eimeria tenella; 200 ppm in the diet,10
same,condition of birds,Eimeria tenella; [4],appeared to be in good condition
same,fecal blood,Eimeria tenella; [4],scanty or absent
same,solubility,[1]; highly polar solvents,readily soluble
same,solubility,[1]; liquid lower alkanes,relatively insoluble
same,solubility,[1]; lower aliphatic alcohols,soluble
same,solubility,[1]; nonpolar solvents,insoluble
same,solubility,"[1]; phenol, diethyl ether and acetone",partially soluble
same,solubility,[1]; solvents of intermediate polarity,varies in solubility
CCC1(C2OC(C3OC(O)(COC4OC(CO)C(O)C(O)C4O)C(C)CC3C)CC2C)CCC(C2(C)CCC3(CC(O)C(C)C(C(C)C(OC)C(C)C(=O)O)O3)O2)O1 (stereo not drawn) [Metabolite A-27106],pKa,[2],7.2
same,toxicity compared with monensin,mice; mice,less toxic than monensin
